Reference: patent publication US5508401A, “Substituted dibenzo[a,d]cycloheptene NMDA antagonists” (priority 1991, dated 1996)

Tests used:
[1] = target: NMDA-associated ion channel; test: Displacement of [3H]-TCP from its binding site in rat frontal cortex homogenates; conditions: functional binding assay without added spermidine
Source text: Ability to Displace [^3 H]-TCP from the NMDA Ion Channel
*Functional binding assay without added spermidine.

NMDA [2] = test: Inhibition of NMDA-induced lethality in mice; format: in vivo, male Swiss-albino mice (CD-1 strain); conditions: for ED50 Inhibition of NMDA-Induced Lethality / Percent of animals which survived at the dose indicated / Efficacy Ratio (ED50/TD50): ip, mice; for ED50 Inhibition of NMDA-Induced Lethality: dose required to produce 50% survival rate, NMDA 195 mg/kg i.p. 30 min after compound; for Percent of animals which survived at the dose indicated: NMDA 195 mg/kg i.p.; for Efficacy Ratio (ED50/TD50): NMDA-induced lethality vs traction reflex deficit (ataxia)
Description: The mice were pretreated with the representative test compounds followed thirty minutes later with NMDA (195 mg/kg, i.p., the ED90 dose for generalized myoclonus). The mice were then observed for 30 minutes, noting the latency of onset of generalized myoclonus (uncontrollable hind leg scratching or limbs and/or torso muscle jerking with loss of […] reflex) and death. From the latter, the ED50 for survival is determined. In this standard experimental test procedure, the specific compounds tested and their activity, which representatively establish the activity for all the compounds herein, are presented in Table I as follows:
(§1) NMDA-Induced Lethality and Traction Reflex Deficit (Ataxia)
Of Lethality Reflex Deficit
*As measured in mice. Defined as the dose required to produce 50% surviva
#Percent of animals which survived at the dose indicated.

NMDA-induced responses = conditions: cited from earlier work
[3] = cited from earlier work
[4] = Traction reflex deficit (ataxia) in mice; conditions: mouse, in vivo, ip, dose which produced the deficit in 50% of animals tested
Source text: In fact, the separation between a compound's NMDA-antagonist activity and ataxic activity (often expressed as an "efficacy ratio" of the ED50 's of these two activities) has been extensively used to evaluate its therapeutic usefulness versus its liabilities. In our studies, PCP is approximately equipotent in its abilities to antagonize NMDA-induced lethality in mice and cause ataxia as measured by the traction reflex deficit model, giving an efficacy ratio (ED50 /TD50) of approximately 1.4 (Table 1, infra).
as §1
^@ As measured in mice. Defined as the dose which produced the defici
in 50% of animals tested.

NMDA [5] = conditions: in words; cited from earlier work
[6] = in vivo; cited from earlier work
[7] = system: high-affinity PCP binding site in the NMDA-associated ion channel; conditions: cited from earlier work
cerebral ischemia = conditions: in vivo; cited from earlier work

## CC12CNC(Cc3ccc(Br)cc31)c1ccccc12 (single isomer, unassigned; (+)) [Example 6, (+)-10,11-Dihydro-3-bromo-5-methyl-10,5-(iminomethano)-5H -dibenzo[a,d]cycloheptene]
[1]
  IC50: 89 nM
NMDA [2]
  ED50 Inhibition of NMDA-Induced Lethality: 2.2 mg/kg

## CC12CNC(Cc3ccc(Br)cc31)c1ccccc12 (single isomer, unassigned; (-)) [Example 5, (-)-10,11-Dihydro-3-bromo-5-methyl-10,5-(iminomethano)-5H -dibenzo[a,d]cycloheptene]
[1]
  IC50: 1010 nM
NMDA [2]; 5 mg/kg
  Percent of animals which survived at the dose indicated: 40%

## COc1ccc2c(c1)[C@]13CCCC[C@@H]1[C@H](C2)N(C)CC3 [Dextromethorphan]
NMDA-induced responses
  Antagonism of NMDA-induced responses: noncompetitively antagonizes NMDA-induced responses
[1]
  IC50: 745 nM
NMDA [2]
  Efficacy Ratio (ED50/TD50): 2.1
  ED50 Inhibition of NMDA-Induced Lethality: 21 mg/kg
NMDA [2]; in words
  Potency in antagonizing NMDA-induced lethality vs PCP and MK-801: not as potent as PCP and MK-801
[3]
  Metabolism in man: metabolized to dextrorphan in man

## CN1CC[C@@]23CCCC[C@@H]2[C@@H]1Cc1ccc(O)cc13 [Dextrorphan, dextrorphan]
NMDA [2]
  ED50 Inhibition of NMDA-Induced Lethality: 13 mg/kg

## CC12CNC(Cc3ccc(Br)cc31)c1ccccc12 (stereo not shown) [Example 1, 10.11-Dihydro-3-bromo-5-methyl-10,5-(iminomethano)-5H -dibenzo[a,d]cycloheptene]
[4]
  TD50: 14.7 mg/kg
[1]
  IC50: 192 nM
NMDA [2]
  Efficacy Ratio (ED50/TD50): 3.2
  ED50 Inhibition of NMDA-Induced Lethality: 4.6 mg/kg

## CC12CNC(Cc3ccccc31)c1ccc(Br)cc12 (stereo not shown) [Example 2, 10,11-Dihydro-7-bromo-5-methyl-10,5-(iminomethano)-5H-dibenzo[a,d]cycloheptene]
[1]
  IC50: 110 nM
NMDA [2]; 20 mg/kg
  Percent of animals which survived at the dose indicated: 60%

## CC12CNC(Cc3ccc(Cl)cc31)c1ccccc12 (stereo not shown) [Example 3, 10,11-Dihydro-3-chloro-5-methyl-10,5-(iminomethano)-5H-dibenzo[a,d]cycloheptene]
NMDA [2]; 5 mg/kg
  Percent of animals which survived at the dose indicated: 90%

## CC12CNC(Cc3ccc(F)cc31)c1ccccc12 (stereo not shown) [Example 4, 10,11-Dihydro-3-fluoro-5-methyl-10,5-(iminomethano)-5H -dibenzo[a,d]cycloheptene]
NMDA [2]; 5 mg/kg
  Percent of animals which survived at the dose indicated: 90%

## C[C@]12N[C@H](Cc3ccccc31)c1ccccc12 [MK-801]
NMDA [5]
  Antagonism of NMDA-induced lethality (background statement): antagonizes NMDA-induced lethality
[1]
  IC50: 2.6 nM
[6]
  Drug discrimination: generalization for PCP: generalizes for PCP
NMDA [2]
  Efficacy Ratio (ED50/TD50): 0.9
  ED50 Inhibition of NMDA-Induced Lethality: 0.19 mg/kg
[7]
  Competition for the high-affinity PCP binding site: competes for the high-affinity PCP binding site
Cerebral ischemia
  Protection against cell death in cerebral ischemia models: protects against cell death in cerebral ischemia models

## c1ccc(C2(N3CCCCC3)CCCCC2)cc1 [PCP, phencyclidine]
NMDA [5]
  Antagonism of NMDA-induced lethality (background statement): antagonizes NMDA-induced lethality
NMDA-induced responses
  Antagonism of NMDA-induced responses: noncompetitively antagonize NMDA-induced responses
[1]
  IC50: 28.2 nM
NMDA [2]
  ED50 Inhibition of NMDA-Induced Lethality: 1.9 mg/kg
Cerebral ischemia
  Protection against cell death in cerebral ischemia models: protects against cell death in cerebral ischemia models
